Measurements as given in US20180282735A1, “PHARMACEUTICAL COMPOSITION FOR NEURODEGENERATIVE BRAIN DISEASE AND SCREENING METHOD FOR THE SAME” (MACROGEN, INC., priority 2017, published 2018).

Columns and labels:
SH-SY5Y tau-BiFC cells = format: cell-based; settings: for level of tau phosphorylation: SH-SY5Y Tau-BiFC cell line, FIG. 5b; for dose dependence of tau phosphorylation level: SH-SY5Y Tau-BiFC, various concentrations, 29 hours, FIG. 5c; for tau accumulation (tau-BiFC): SH-SY5Y tau-BiFC, FIG. 5
Text: (§1) The establishment of the HEK293/tau-BiFC cell line was previously described (Tak H, Hague M M, Kim M J, Lee J H, Baik J H, Kim Y et al. Himolecular fluorescence complementation; lighting-up Tau-Tau interaction in living cells. PLOS One 2013; 8: e81682). Venus fluorescence protein amino-terminal fragment (VN 173) and carboxyl-terminal fragment (VC 155), which are independently non-fluorescent, were fused to full-length tau proteins. For neuronal cell expression, tau-BiFC constructs (pCMV6-hTau40-VN173 and pCMV6-hTau-VC155) were transfected into SH-SY5Y. SH-SY5Y/tau-BiFC stable cells were selected using Geneticin (200 μg/ml). […] All established cell lines were grown in Dulbecco's modified eagle medium containing 10% fetal bovine serum, […] and 1 μg/ml of Geneticin at 37° C. in a humidified atmosphere containing 5% CO2.
(§2) For microscopic image analysis, HEK293 tau-BiFC and SH-SY5Y tau-BiFC cells were plated onto a black 384-well plate. The next day, tau-BiFC cells were treated with okadaic acid (O8010, Sigma), cyclosporine A (C3662, Sigma) or deltamethrin (D9315, Sigma) at various concentrations. After incubation for 29 hours, the plate was imaged using the Operetta® high contents imaging system (PerkinElmer). The cellular intensities of tau-BiFC fluorescence were analyzed using the Harmony® 3.1 analysis software. Each experiment was performed in triplicate. The bar graphs for BiFC intensity indicate the means ±SEM from three independent experiments.

HEK293 tau-BiFC cells = format: cell-based; settings: for level of tau phosphorylation: HEK293 Tau-BiFC cell line, FIG. 5b; for tau accumulation (tau-BiFC): HEK293 tau-BiFC, FIG. 5
Text: as §1, §2

PP2B = target: T1, PP2B (Homo sapiens, UniProt Q08209); settings: by binding to cyclophilin or FKBP respectively; cited from earlier work
T1 construct: endogenous in cells; host or cells: SH-SY5Y/tau-BiFC and HEK293/tau-BiFC cells

Molecule | level of tau phosphorylation (SH-SY5Y tau-BiFC cells) | dose dependence of tau phosphorylation level (SH-SY5Y tau-BiFC cells) | tau accumulation (tau-BiFC) (SH-SY5Y tau-BiFC cells) | level of tau phosphorylation (HEK293 tau-BiFC cells) | tau accumulation (tau-BiFC) (HEK293 tau-BiFC cells) | enzyme activity inhibition (PP2B) | intensity of tau phosphorylation (HEK293 tau-BiFC cells; HEK 293 cell line, FIG. 5d)
CC1(C)[C@H](C(=O)O[C@H](C#N)c2cccc(Oc3ccccc3)c2)[C@@H]1C=C(Br)Br [deltamethrin] | increased | declining trend after the threshold of 3 μM | increase of tau accumulation | increased | increase of tau accumulation |  | 
cyclosporine A | increased | elevated the level of tau phosphorylation in a dose-dependent manner | increase of tau accumulation | increased | increase of tau accumulation | inhibits specifically enzyme activity | 
C=C1[C@@H](O)[C@@H]2O[C@]3(CC[C@H](/C=C/[C@@H](C)[C@@H]4CC(C)=C[C@@]5(O[C@H](C[C@@](C)(O)C(=O)O)CC[C@H]5O)O4)O3)CC[C@H]2O[C@@H]1[C@@H](O)C[C@H](C)[C@H]1O[C@@]2(CCCCO2)CC[C@H]1C [okadaic acid] | increased | elevated the level of tau phosphorylation in a dose-dependent manner | increase of tau accumulation | increased | increase of tau accumulation |  | higher intensity of tau phosphorylation
